In assay [1] the target is T1, 80S Ribosome (Homo sapiens) (UniProt P08865+P42677+P62753+P15880+P23396+P61247+P62701+P22090+P46782+P62081+P62241+P46781+P46783+P62280+P25398+P62277+P62263+P62841+P62244+P62249+P08708+P62269+P39019+P60866+P63220+P62266+P62847+P62851+P62854+P62979+P62857+P62273+P62861+P39023+P36578+P46777+Q02878+P18124+P62424+P62917+P32969+P27635+P62906+P62913+P30050+P26373+P40429+P50914+P61313+P18621+Q07020+Q02543+P84098+P46778+P35268+P62829+P62750+P83731+P61254+P61353+P46776+P46779+P47914+P62888+P62899+P62910+P49207+P42766+P18077+Q9Y3U8+P83881+P61927+P61513+P63173+P62891+P62945+P05388+P05386). The assay can be described thus: Binding affinity to ribosomal protein S10 in human Hela cells lysates assessed as protein enrichment by Western blotting analysis. The class given is cell-free.

For assay [2], the target named is T1, 80S Ribosome (Homo sapiens). The assay is described as follows: Binding affinity to 40S ribosomal protein S17 in human Hela cells lysates assessed as protein enrichment by measuring normalized heavy/light ratio at by nano-LC-ESIMS/MS analysis. It is filed as cell-free.
Assay [3] has the same target. The assay can be described thus: Binding affinity to 40S ribosomal protein S18 in human Hela cells lysates assessed as protein enrichment by measuring normalized heavy/light ratio at by nano-LC-ESIMS/MS analysis. It is filed as cell-free.
For assay [4] the target is unchanged. The assay is described as follows: Binding affinity to 40S ribosomal protein S26 in human Hela cells lysates assessed as protein enrichment by measuring normalized heavy/light ratio at by nano-LC-ESIMS/MS analysis. The class given is cell-free.
Assay [5] has as its target 60 kDa heat shock protein, mitochondrial (Homo sapiens) (UniProt P10809). The assay is described as follows: Binding affinity to 60 kDa heat shock protein in human Hela cells lysates assessed as protein enrichment by measuring normalized heavy/light ratio at by nano-LC-ESIMS/MS analysis. It is filed as cell-free.
In assay [6] the target is T1, 80S Ribosome (Homo sapiens). The assay can be described thus: Binding affinity to 60S acidic ribosomal protein P1 in human Hela cells lysates assessed as protein enrichment by measuring normalized heavy/light ratio at by nano-LC-ESIMS/MS analysis. The class given is cell-free.
Assay [7] shares this target. The assay can be described thus: Binding affinity to 60S ribosomal protein L15 in human Hela cells lysates assessed as protein enrichment by measuring normalized heavy/light ratio at by nano-LC-ESIMS/MS analysis. It is filed as cell-free.
For assay [8] the target is unchanged. The assay is described as follows: Binding affinity to 60S ribosomal protein L23 in human Hela cells lysates assessed as protein enrichment by measuring normalized heavy/light ratio at by nano-LC-ESIMS/MS analysis. It is filed as cell-free.
Assay [9] shares this target. The assay is described as follows: Binding affinity to 60S ribosomal protein L23a in human Hela cells lysates assessed as protein enrichment by measuring normalized heavy/light ratio at by nano-LC-ESIMS/MS analysis. It is filed as cell-free.
Assay [10] shares this target. The assay is described as follows: Binding affinity to 60S ribosomal protein L9 in human Hela cells lysates assessed as protein enrichment by measuring normalized heavy/light ratio at by nano-LC-ESIMS/MS analysis. It is filed as cell-free.
The target in assay [11] is Elongation factor 1-beta (Homo sapiens) (UniProt P24534). The assay is described as follows: Binding affinity to elongation factor 1-beta in human Hela cells lysates assessed as protein enrichment by measuring normalized heavy/light ratio at by nano-LC-ESIMS/MS analysis. It is filed as cell-free.
Elongation factor 1-beta (Homo sapiens), sequence (P24534 whole entry): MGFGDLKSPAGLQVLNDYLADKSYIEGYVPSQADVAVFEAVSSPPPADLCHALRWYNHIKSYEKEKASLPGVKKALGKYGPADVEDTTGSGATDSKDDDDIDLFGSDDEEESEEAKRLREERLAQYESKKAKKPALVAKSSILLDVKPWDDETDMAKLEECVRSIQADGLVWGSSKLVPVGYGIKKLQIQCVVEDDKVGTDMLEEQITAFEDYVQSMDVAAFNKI
Assay [12] has as its target Eukaryotic initiation factor 4A-II (Homo sapiens) (UniProt Q14240). The assay can be described thus: Binding affinity to eukaryotic initiation factor 4A-II in human Hela cells lysates assessed as protein enrichment by measuring normalized heavy/light ratio at by nano-LC-ESIMS/MS analysis. It is filed as cell-free.
Assay [13] addresses Poly(rC)-binding protein 2 (Homo sapiens) (UniProt Q15366). The assay can be described thus: Binding affinity to poly(rC)-binding protein 2 in human Hela cells lysates assessed as protein enrichment by measuring normalized heavy/light ratio at by nano-LC-ESIMS/MS analysis. It is filed as cell-free.
The target of assay [14] is Putative annexin A2-like protein (Homo sapiens) (UniProt A6NMY6). The assay is described as follows: Binding affinity to putative annexin A2-like protein in human Hela cells lysates assessed as protein enrichment by measuring normalized heavy/light ratio at by nano-LC-ESIMS/MS analysis. The class given is cell-free.
Putative annexin A2-like protein (Homo sapiens), sequence (A6NMY6 whole entry): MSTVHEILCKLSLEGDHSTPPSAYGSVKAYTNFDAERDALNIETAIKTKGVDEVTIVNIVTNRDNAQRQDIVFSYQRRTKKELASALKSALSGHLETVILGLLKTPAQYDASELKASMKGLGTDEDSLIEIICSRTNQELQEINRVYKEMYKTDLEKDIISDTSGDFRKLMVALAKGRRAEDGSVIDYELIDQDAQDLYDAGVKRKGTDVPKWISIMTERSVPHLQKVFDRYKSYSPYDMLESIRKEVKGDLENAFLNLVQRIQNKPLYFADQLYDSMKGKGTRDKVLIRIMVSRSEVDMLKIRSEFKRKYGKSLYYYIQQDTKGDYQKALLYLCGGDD
Assay [15] has as its target Stress-70 protein, mitochondrial (Homo sapiens) (UniProt P38646). The assay is described as follows: Binding affinity to stress-70 protein in human Hela cells lysates assessed as protein enrichment by measuring normalized heavy/light ratio at by nano-LC-ESIMS/MS analysis. The class given is cell-free.
Assay [16] has as its target Tubulin alpha-1B chain (Homo sapiens) (UniProt P68363). The assay can be described thus: Binding affinity to tubulin alpha-1B chain in human Hela cells lysates assessed as protein enrichment by measuring normalized heavy/light ratio at by nano-LC-ESIMS/MS analysis. It is filed as cell-free.
Assay [17] addresses Tubulin beta-5 chain (Homo sapiens) (UniProt P07437). The assay can be described thus: Binding affinity to tubulin beta chain in human Hela cells lysates assessed as protein enrichment by measuring normalized heavy/light ratio at by nano-LC-ESIMS/MS analysis. It is filed as cell-free.
Another assay addresses Vimentin (Homo sapiens) (UniProt P08670). The assay is described as follows: Binding affinity to vimentin in human Hela cells lysates assessed as protein enrichment by measuring normalized heavy/light ratio at by nano-LC-ESIMS/MS analysis. The class given is cell-free.
Assay [18] can be described thus: Binding affinity to brain acid soluble protein 1 in human Hela cells lysates assessed as protein enrichment by measuring normalized heavy/light ratio at by nano-LC-ESIMS/MS analysis.

Activity calls are given as the source filed them. The rule behind the calls is not given here.

60 kDa heat shock protein, mitochondrial (Homo sapiens), sequence (P10809 whole entry): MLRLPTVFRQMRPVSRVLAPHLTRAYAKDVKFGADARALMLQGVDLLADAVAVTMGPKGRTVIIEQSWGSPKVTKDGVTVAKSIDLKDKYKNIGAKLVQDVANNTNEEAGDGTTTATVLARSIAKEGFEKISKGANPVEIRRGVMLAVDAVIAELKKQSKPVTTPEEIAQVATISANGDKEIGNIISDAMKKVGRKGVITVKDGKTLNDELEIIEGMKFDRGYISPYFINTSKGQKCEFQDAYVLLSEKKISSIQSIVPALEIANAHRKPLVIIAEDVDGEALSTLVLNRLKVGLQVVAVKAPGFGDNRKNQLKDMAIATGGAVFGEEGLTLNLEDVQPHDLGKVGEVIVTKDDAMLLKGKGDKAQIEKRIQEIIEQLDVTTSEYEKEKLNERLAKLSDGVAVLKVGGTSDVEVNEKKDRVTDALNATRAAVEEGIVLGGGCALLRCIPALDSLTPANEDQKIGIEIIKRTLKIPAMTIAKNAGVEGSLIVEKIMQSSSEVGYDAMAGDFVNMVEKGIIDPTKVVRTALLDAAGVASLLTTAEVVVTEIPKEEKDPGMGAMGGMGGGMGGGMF
Stress-70 protein, mitochondrial (Homo sapiens), sequence (P38646 whole entry): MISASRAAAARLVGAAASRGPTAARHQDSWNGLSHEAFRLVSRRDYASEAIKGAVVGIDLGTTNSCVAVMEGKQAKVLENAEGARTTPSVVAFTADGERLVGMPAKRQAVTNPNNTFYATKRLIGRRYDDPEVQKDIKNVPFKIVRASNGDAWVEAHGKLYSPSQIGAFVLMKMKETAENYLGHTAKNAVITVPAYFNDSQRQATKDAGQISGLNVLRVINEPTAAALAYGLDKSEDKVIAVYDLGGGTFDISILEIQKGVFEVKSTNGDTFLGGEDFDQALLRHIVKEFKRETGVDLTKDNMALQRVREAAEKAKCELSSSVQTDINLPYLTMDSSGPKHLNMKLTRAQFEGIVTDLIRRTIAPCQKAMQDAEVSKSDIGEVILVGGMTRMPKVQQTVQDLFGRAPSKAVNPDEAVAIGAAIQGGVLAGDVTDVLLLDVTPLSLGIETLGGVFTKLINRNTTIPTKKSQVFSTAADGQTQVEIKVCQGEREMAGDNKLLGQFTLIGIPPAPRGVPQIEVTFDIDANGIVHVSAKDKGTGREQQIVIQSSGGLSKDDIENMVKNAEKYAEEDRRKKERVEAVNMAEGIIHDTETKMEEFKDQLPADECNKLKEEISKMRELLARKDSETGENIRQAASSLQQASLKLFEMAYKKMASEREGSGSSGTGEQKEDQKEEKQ
Poly(rC)-binding protein 2 (Homo sapiens), sequence (Q15366 whole entry): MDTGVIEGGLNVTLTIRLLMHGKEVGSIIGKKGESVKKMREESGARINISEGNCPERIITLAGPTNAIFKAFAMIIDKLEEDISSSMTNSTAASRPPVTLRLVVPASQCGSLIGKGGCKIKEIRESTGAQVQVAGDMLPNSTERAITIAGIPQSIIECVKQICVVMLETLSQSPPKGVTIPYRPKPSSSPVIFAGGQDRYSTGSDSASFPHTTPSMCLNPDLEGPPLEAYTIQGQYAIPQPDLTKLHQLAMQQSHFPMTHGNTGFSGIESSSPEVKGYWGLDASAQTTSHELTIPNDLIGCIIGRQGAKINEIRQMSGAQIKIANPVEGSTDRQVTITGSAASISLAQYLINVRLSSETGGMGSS
Tubulin alpha-1B chain (Homo sapiens), sequence (P68363 whole entry, looked up): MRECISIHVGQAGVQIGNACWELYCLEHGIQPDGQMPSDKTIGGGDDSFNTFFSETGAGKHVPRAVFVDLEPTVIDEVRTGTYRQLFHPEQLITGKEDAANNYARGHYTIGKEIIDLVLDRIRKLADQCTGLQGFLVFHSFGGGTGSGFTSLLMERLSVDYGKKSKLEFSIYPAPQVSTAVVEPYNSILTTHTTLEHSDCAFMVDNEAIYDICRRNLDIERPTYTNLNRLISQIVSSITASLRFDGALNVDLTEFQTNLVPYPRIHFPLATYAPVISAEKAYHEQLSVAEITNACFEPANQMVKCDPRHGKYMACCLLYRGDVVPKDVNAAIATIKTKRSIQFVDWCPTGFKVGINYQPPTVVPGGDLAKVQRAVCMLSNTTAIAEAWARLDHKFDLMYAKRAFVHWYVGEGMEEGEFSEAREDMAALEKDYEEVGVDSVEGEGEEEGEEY
Eukaryotic initiation factor 4A-II (Homo sapiens), sequence (Q14240 whole entry): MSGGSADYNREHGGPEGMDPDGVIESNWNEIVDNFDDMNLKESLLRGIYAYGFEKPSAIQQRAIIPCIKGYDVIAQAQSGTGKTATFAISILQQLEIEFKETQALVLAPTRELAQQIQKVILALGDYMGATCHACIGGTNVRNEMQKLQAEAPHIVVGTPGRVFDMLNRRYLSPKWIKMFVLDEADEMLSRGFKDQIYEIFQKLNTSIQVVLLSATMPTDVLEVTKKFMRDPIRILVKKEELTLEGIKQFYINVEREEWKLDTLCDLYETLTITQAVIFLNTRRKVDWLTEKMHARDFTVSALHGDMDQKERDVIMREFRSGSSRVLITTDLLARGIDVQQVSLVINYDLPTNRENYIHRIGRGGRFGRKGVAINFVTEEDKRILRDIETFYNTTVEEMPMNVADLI
Vimentin (Homo sapiens), sequence (P08670 whole entry): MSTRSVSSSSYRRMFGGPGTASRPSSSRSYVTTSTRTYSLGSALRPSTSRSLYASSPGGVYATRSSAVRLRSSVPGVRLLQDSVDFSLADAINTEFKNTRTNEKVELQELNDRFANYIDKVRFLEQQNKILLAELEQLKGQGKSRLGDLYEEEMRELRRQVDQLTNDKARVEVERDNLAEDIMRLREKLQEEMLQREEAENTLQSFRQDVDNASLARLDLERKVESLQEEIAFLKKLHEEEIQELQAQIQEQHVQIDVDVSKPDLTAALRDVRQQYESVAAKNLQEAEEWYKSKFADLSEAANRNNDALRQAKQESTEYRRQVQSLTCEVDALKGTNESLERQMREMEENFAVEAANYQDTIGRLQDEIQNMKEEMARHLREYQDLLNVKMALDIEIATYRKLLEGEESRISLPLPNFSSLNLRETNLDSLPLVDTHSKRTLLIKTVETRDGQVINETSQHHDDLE
Tubulin beta-5 chain (Homo sapiens), sequence (P07437 whole entry): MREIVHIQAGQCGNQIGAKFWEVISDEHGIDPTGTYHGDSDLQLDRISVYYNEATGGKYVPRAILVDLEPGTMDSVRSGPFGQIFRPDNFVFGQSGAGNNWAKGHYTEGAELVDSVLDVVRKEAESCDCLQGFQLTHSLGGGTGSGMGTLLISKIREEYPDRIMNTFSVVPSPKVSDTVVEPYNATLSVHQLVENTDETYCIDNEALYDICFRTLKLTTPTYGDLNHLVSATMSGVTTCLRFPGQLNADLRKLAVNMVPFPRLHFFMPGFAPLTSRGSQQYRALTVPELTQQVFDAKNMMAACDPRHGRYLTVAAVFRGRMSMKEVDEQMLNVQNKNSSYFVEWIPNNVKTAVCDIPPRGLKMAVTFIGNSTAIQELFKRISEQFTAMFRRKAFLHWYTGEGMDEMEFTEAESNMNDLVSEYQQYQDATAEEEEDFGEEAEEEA

As to `C/C=C(\C)C(=O)O[C@H]1[C@H](O)[C@]2(COC(C)=O)[C@@H](O)C[C@]3(C)C(=CC[C@@H]4[C@@]5(C)CC[C@H](O[C@@H]6O[C@H](C(=O)O)[C@@H](O)[C@H](O)[C@H]6O)[C@@](C)(CO)[C@@H]5CC[C@]43C)[C@@H]2CC1(C)C`, in assay [1], the outcome was Active. Besides, the Ratio in assay [2] worked out at 0.069; in [3], 0.448; in assay [4], 0.158; in assay [5] it was 0.57; in [6], 0.27; in [7], 0.818. Also, the Ratio in [8] was 0.527; in [9], 0.313; in [10], 0.453; in [11], 0.525; in assay [12] it was 0.404; in assay [13] it was 0.633. Further, the Ratio worked out at 0.988 in assay [14]; 0.751 in [15]; 0.523 in assay [16]; 0.52 in [17]; 0.817 on Vimentin (Homo sapiens); 0.744 in assay [18].

The values above are taken from ChEMBL document CHEMBL4270485, “Determination of Gymnemic Acid I as a Protein Biosynthesis Inhibitor Using Chemical Proteomics” (J Nat Prod, 2017).
